Results on 8 molecules are retold here after US12240862B2, “Inhibitors of peptidylarginine deiminases” (Gilead Sciences, Inc., priority 2020, dated 2025).

In general, IC50 refers to the midpoint of a concentration-inhibition curve.

The target of this test is T1, human PAD4 (Homo sapiens, UniProt Q9UM07).
T1 construct: human PAD4 (NM_012387), A2P663, was PCR amplified; His-SUMO (N, cleaved yes); made in house; host or cells: E. coli BL21(DE3)
The test can be described thus: In vitro PAD4 BAEE biochemical assay. Conditions: human PAD4, BAEE substrate; 5 nM PAD4, 2 mM calcium chloride, 3 mM BAEE; geometric mean of multiple experiments. An outline of the steps:
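Tag-free recombinant hPAD4 (5 nM), 2 mM CaCl2, 3 mM BAEE, 50 mM MOPS pH 7.6, 2 mM DTT; 30 min compound preincubation, 2 h reaction, all 25 °C. EDTA quench; ammonia read via o-phthalaldehyde amine coupling, 1 h.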

T1 sequence (Q9UM07 2-663): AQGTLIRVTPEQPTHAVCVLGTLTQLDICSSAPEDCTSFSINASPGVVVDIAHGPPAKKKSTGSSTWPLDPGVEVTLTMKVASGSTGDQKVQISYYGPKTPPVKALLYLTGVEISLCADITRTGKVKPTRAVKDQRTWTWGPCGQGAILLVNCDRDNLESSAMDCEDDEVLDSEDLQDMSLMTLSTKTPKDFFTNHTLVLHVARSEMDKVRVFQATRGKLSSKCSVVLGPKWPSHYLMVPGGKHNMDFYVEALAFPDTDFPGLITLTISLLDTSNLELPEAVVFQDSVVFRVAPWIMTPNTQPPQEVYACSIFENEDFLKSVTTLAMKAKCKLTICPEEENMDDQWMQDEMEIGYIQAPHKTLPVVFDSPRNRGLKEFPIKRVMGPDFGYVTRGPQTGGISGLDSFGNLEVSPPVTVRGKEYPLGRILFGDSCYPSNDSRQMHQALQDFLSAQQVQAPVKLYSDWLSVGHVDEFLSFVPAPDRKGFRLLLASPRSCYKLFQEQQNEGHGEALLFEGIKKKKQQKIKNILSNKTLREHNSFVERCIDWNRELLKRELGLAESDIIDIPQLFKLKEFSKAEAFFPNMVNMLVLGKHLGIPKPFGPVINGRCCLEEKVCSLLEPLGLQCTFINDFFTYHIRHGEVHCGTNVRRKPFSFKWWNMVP

Regarding `COc1cc(C(=O)N2[C@H]3CC[C@@H]2[C@H](N)C3)cc2nc(-c3cc4ccc(N5CCCCS5(=O)=O)nc4n3CC3CC3)c(C)n12` [Example 474, [(1~{R},2~{R},4~{S})-2-amino-7-azabicyclo [2.2.1]heptan-7-yl]-[2-[1-(cyclopropylmethyl)-6-(1,1-dioxothiazinan-2-yl)pyrrolo [2,3-b]pyridin-2-yl]-5-methoxy-3-methylimidazo [1,2-a]pyridin-7-yl]methanone], the IC50 worked out at 44.2 nM.
Next, `CCN(c1ccc2cc(-c3nc4cc(C(=O)N5[C@H]6CC[C@@H]5[C@H](N)C6)cc(OC)n4c3C)n(CC3CC3)c2n1)S(C)(=O)=O` [Example 475, ~{N}-[2-[7-[(1~{R},2~{R}, 4~{S})-2-amino-7-azabicyclo[2.2.1]heptane-7-carbonyl]-5-methoxy-3-methylimidazo[1,2-a]pyridin-2-yl]-1-(cyclopropylmethyl)pyrrolo [2,3-b]pyridin-6-yl]-~{N}-ethylmethanesulfonamide]: 75.1 nM; `COc1cc(C(=O)N2[C@H]3CC[C@@H]2[C@H](N)C3)cc2nc(-c3cc4ccc(N(C)S(C)(=O)=O)nc4n3CC3CC3)c(C)n12` [Example 476, ~{N}-[2-[7-[(1~{R}, 2~{R},4~{S})-2-amino-7-azabicyclo[2.2.1]heptane-7-carbonyl]-5-methoxy-3-methylimidazo[1,2-a]pyridin-2-yl]-1-(cyclopropylmethyl)pyrrolo[2,3-b]pyridin-6-yl]-~{N}-methylmethanesulfonamide]: 46.8 nM; `COc1cc(C(=O)N2[C@H]3CC[C@@H]2[C@H](N)C3)cc2nc(-c3cc4ccc(N(C5CCC5)S(C)(=O)=O)nc4n3CC3CC3)c(C)n12` [Example 477, ~{N}-[2-[7-[(1~{R}, 2~{R},4~{S})-2-amino-7-azabicyclo[2.2.1]heptane-7-carbonyl]-5-methoxy-3-methylimidazo[1,2-a]pyridin-2-yl]-1-(cyclopropylmethyl)pyrrolo [2,3-b]pyridin-6-yl]-~{N}-cyclobutylmethane-sulfonamide]: 100 nM.
For `COc1cc(C(=O)N2CCC[C@@H](N)C2)cc2nc(-c3cc4ccc(N(C(F)F)S(=O)(=O)C5COC5)nc4n3CC3CC3)c(C)n12` [Example 478, ~{N}-[2-[7-[(3~{R})-3-aminopiperidine-1-carbonyl]-5-methoxy-3-methylimidazo[1,2-a]pyridin-2-yl]-1-(cyclopropylmethyl)pyrrolo [2,3-b]pyridin-6-yl]-~{N}-(difluoromethyl)oxetane-3-sulfonamide] the value was 236 nM; for `COc1cc(C(=O)N2CCC[C@@H](N)[C@H]2C)cc2nc(-c3cc4ccc(N(C5CC5)S(C)(=O)=O)nc4n3CC3CC3)c(C)n12` [Example 479, ~{N}-[2-[7-[(2~{R}, 3~{R})-3-amino-2-methylpiperidine-1-carbonyl]-5-methoxy-3-methylimidazo[1,2-a]pyridin-2-yl]-1-(cyclopropylmethyl)pyrrolo [2,3-b]pyridin-6-yl]-~{N}-cyclopropylmethane-sulfonamide], 181 nM.
For the molecule `COc1cc(C(=O)N2CCC[C@@H](N)[C@H]2C)cc2nc(-c3cc4ccc(N(C)S(C)(=O)=O)nc4n3CC3CC3)c(C)n12` [Example 480, ~{N}-[2-[7-[(2~{R}, 3~{R})-3-amino-2-methylpiperidine-1-carbonyl]-5-methoxy-3-methylimidazo[1,2-a]pyridin-2-yl]-1-(cyclopropylmethyl)pyrrolo [2,3-b]pyridin-6-yl]-~{N}-methylmethanesulfonamide], the IC50 is 166 nM.
Next, `COc1cc(C(=O)N2C[C@H](N)CC[C@@H]2C)cc2nc(-c3cc4ccc(N(C)S(C)(=O)=O)nc4n3CC3CC3)c(C)n12` [Example 481, N-(2-(7-((2S,5R)-5-amino-2-methylpiperidine-1-carbonyl)-5-methoxy-3-methylimidazo[1,2-a]pyridin-2-yl)-1-(cyclopropylmethyl)-1H-pyrrolo[2,3-b]pyridin-6-yl)-N-methylmethanesulfonamide]: 152 nM.
